Source: patent publication US11891623B2, “Generation of neural stem cells from human trophoblast stem cells” (Accelerated BioSciences Corp., priority 2010, dated 2024)

Key:
[1] = system: intracellular calcium in Huh-7 cells; assay: Real-time live cell calcium imaging in BBP-treated Huh-7 cells; assay type: cell-based, human
Procedure: Cells were pre-treated with Fluo-4 (1 μM), a Ca^2+-specific dye, in BSS buffer at 37° C. for 20 min before treatment with BBP (1 μM). Measurements of relative intracellular calcium intensity were performed by real-time cell imaging microscopy and analyzed by Cell-R software system (Olympus).

[2] = system: Huh-7 cells; assay: BBP-induced signaling in Huh-7 cells (RT-PCR, Western blot, immunofluorescence); assay type: cell-based, human
Procedure: Huh-7 cells (3×10^5) were seeded into a 6-well dish and incubated for 24 h. Cells cultured serum-free medium overnight were treated with BBP (1 μM) for various time intervals. After BBP stimulation, cells were washed twice with PBS. Total RNAs were extracted by TRIzol methods (Invitrogen). RNA (2 μg) was used to synthesize cDNA by Reverse Transcription System (Promega). The c-DNAs were amplified by the specific primers. The primer pairs were designed as follows: AhR, forward 5′-TACTCTGCCGCCCAAACTGG-3′ (SEQ ID NO:49), reverse 5′-GCTCTGCAACCTCCGATTCC-3′ (SEQ ID NO:50); β-actin, forward 5′-CTC GCT GTC CAC CTT CCA-3′ (SEQ ID NO:51), reverse 5′-GCT GTC ACC TTC ACC GTTC-3′ (SEQ ID NO:52). PCR conditions were set at 95° C. for 5 min and 95° C. for 30 sec, 54° C. for 30 sec, 72° C. for 1 min followed by 72° C. for 10 min (36 cycles). The products were separated by 2% agarose gels and visualized by ethidium bromide.
Huh-7 cells (1×10^6) were seeded into 10 cm dish and cultured overnight. The culture medium was changed to serum-free medium for another night. Cells were treated with BBP (1 μM) for various time intervals. […] Cells were then washed twice with ice-cold PBS and lysed by RIPA lysis buffer (Minipore). Protein concentration was measured by BCA protein assay kit (Thermo). Equal amounts of protein (30 μg protein) were resolved by 8% SDS-PAGE, transferred onto PVDF membrane, and blocked with 5% non-fat dry milk for 1 h at room temperature. After blocking, the membrane was incubated with the primary antibodies including AhR (1:1000), Cox-2 (1:1000), Gαq/11 (1:100), Gβ (1:100), β-actin (1:5000), p44/42 MAP kinase (1:1000) or phospho-p44/42 MAP kinase (1:1000) overnight at 4° C. Cells were washed three times with PBST and then incubated with HRP conjugated secondary antibodies for 1 h at room temperature. After washing, the blot was visualized using an enhanced chemiluminescence kit (ECL) (Amersham).
Cells with or without transfection by AhR siRNA were cultured and treated with BBP (1 μM) for 5 and 15 min each. After treatment with primary and secondary antibodies for AhR and Gαq/11, cells were subjected to confocal immunofluorescence microscopy to analyze the dynamic movement in the cell compartments.

[3] = system: AhR; assay: TIRF microscopy of GFP-tagged AhR at the plasma membrane in Huh-7 cells; assay type: cell-based, human; settings: BBP 1 μM
Description: Immunofluorescence studies are considered important for the dynamic study of signal transduction through their ability to capture snapshots of molecular changes in the cell. Human hepatic Huh-7 cancer cells were pre-transfected with pGFP-C1-AhR by using LT1 transfection reagent (Minis Bio LLC, WI) and total internal reflection fluorescence microscopy to selectively observe the molecular events in the cytoplasmic region immediately beneath the plasma membrane. When BBP was introduced, a rapid but transient recruitment and translocation of the GFP-tagged AhR occurred at the subcellular membrane regions, showing a fast elevation and peaking in 115 seconds followed by a gradual decrease in AhR that occurred over a few minutes (FIG. 14a). This fast, dynamic movement of the memAhR at the subcellular membrane is reminiscent of the notion of soft-wired signal transduction.
Huh-7 cells were pre-transfected with pGFP-C1-AhR (a gift of H. Li) by using LT1 transfection reagent (Minis Bio LLC, Madison, WI) for 24 h. For TIRF microscopy, cells were cultured in serum-free medium on cover-slip overnight followed by stimulation by BBP (1 μM, Sigma). The dynamic activities of GFP-tagged AhR at the cell membrane were observed and analyzed by using Zeiss TIRF microscope with Axio Vision Rel. 4.8 software.

[4] = system: hTS cells; assay: RA-induced differentiation of hTS cells; assay type: cell-based, human
Procedure: In another embodiment, a similar ratio in distribution of mixed RA-induced neural progenitors results over 1 to 5-day RA-induction periods. In another embodiment, the cell differentiation becomes undefined trophoblast giant cells over a 7-day RA treatment.
Cells were cultured in conditioned α-MEM containing 20% FBS, 1% penicillin-streptomycin, and 10 μg/ml bFGF (CytoLab Ltd, Rehovot, Israel) at 37° C. in 5% CO2. The medium was refreshed every 3 days in general. After 5 passages of culture, cell differentiations into a variety of specific cell phenotypes were performed by various strategies as shown in the Table in FIG. 12. For osteogenic differentiation, cytochemical mineral matrix was analyzed using an Alizarin red S assay (Sigma-Aldrich, St. Louis, MO) to detect the calcium mineral content. To identify the calcium deposits, cells were fixed and incubated with 2% silver nitrate solution (w/v) for 10 min in dark followed by thorough wash with de-ionized water and exposed under bright light for 15 min. Cells were treated with […] to detect alkaline phosphatase activity using a commercial kit (Sigma-Aldrich, St. Louis, MO). Chondrogenic differentiation was confirmed using Alcian blue staining (Sigma-Aldrich, St. Louis, MO) at an acidic pH level. […]

[5] = system: protein kinase C (PKC) pathway; settings: cited from earlier work
[6] = system: intracellular calcium in hTS cells; assay: Real-time live cell calcium imaging in RA-treated hTS cells; assay type: cell-based, human
Procedure: FIGS. 21a-21n illustrate activation of Gαq/11 signaling pathway: (21a) illustrates expressions of Gαq/11 pathway-related components after RA treatment (10 μM) over time by Western blots; (21b) illustrates real-time live cell imaging microscopy (Cell-R system, Olympus, Tokyo) in hTS cells which were cultured in the calcium-free medium and pre-loaded with Fluo4 (1 μM) in BSS buffer 20 min before RA treatment. […] (c) After depletion of ER calcium, KCl (60 mM) enabled to activate L-type calcium channels.

[7] = system: hTS cells; assay: RA effect on Nanog, Oct4, Sox2, Cdx2 expression in hTS cells (flow cytometry)
[8] = system: hTS cells; assay: RA-induced protein/mRNA expression over time in hTS cells (Western blots, RT-PCR, flow cytometry); assay type: cell-based, human
Procedure: For RT-PCR, total RNA from 10^5-10^6 cells was extracted by using TRIZOL reagent (Invitrogen) and mRNA expression by using a Ready-To-Go RT-PCR Beads kit (Amersham Biosciences, Buckinghamshire, UK). Briefly, the reaction products were resolved on 1.5% agarose gel and visualized with ethidium bromide. β-actin or β-2 microglobulin was used as a positive control. All experiments were performed in triplicate. For qPCR, gene expression was measured with the iQ5 Real-Time PCR Detection System (Bio-Rad Laboratories) and analyzed with Bio-Rad iQ5 Optical System Software, version 2.0 (Bio-Rad Laboratories). Relative mRNA levels were calculated using the comparative Ct method (Bio-Rad, instruction manual) and presented as a ratio to biological controls. All primer pairs were confirmed to approximately double the amount of product within one cycle and to yield a single product of the predicted size.
Cells were seeded into 10 cm dish with the serum-free medium for overnight and treated with or without RA (10 μM) for various time intervals as indicated. After stimulation, cells were washed twice with ice-cold PBS and lysed by RIPA lysis buffer (Minipore). Protein concentration was determined by BCA protein assay kit (Thermo). Equal amounts of protein (30 μg) were resolved by 8% SDS-PAGE, transferred onto PVDF membrane and blocked with 5% non-fat dry milk for 1 h at room temperature. After blocking, the membrane was incubated with primary antibodies for 4 h at 4° C. Cells were washed three times with PBST and then incubated with HRP conjugated secondary antibodies for 1 h at room temperature. After washing six times with PBST buffer, the membrane was incubated with a chemiluminescent substrate (GE Healthcare) for 1 min. Specific bands were visualized using an enhanced chemiluminescence kit (ECL) (Amersham).
hTS cells obtained from the preimplantation embryos in women with early tubal ectopic pregnancy were described previously. Adherent hTS cells were cultured in conditioned α-MEM containing 10 μg/ml bFGF (JRH, Biosciences, San Jose, CA), 10% FBS, and 1% penicillin-streptomycin at 37° C. in 5% CO2. Cells were treated by RA (10 μM) for various time intervals depending on the experiments.

[9] = system: CaMKII; assay: CaMKII inhibitor effect on eIF4B expression (Western blots); assay type: cell-based, human; settings: KN93 1 μM, 2 hr
Procedure: FIGS. 21a-21n illustrate activation of Gαq/11 signaling pathway: (21a) illustrates expressions of Gαq/11 pathway-related components after RA treatment (10 μM) over time by Western blots; (21b) illustrates real-time live cell imaging microscopy (Cell-R system, Olympus, Tokyo) in hTS cells which were cultured in the calcium-free medium and pre-loaded with Fluo4 (1 μM) in BSS buffer 20 min before RA treatment. (a) The RA-induced depletion of intracellular calcium was rescued by adding CaCl2 (2 mM) with a SOCE pattern. […] (c) After depletion of ER calcium, KCl (60 mM) enabled to activate L-type calcium channels.
The transient CaMKII bound and activated eukaryotic initiation factor 4B (eIF4B) (FIG. 21c) to initiate mRNA translation machinery via a cap-independent mechanism.

[10] = system: IP3R; settings: pretreatment with 2-APB

**Q.** With `CCCCOC(=O)c1ccccc1C(=O)OCc1ccccc1` [BBP, Benzyl butyl phthalate] as the compound, how does the intracellular calcium response ([1]; BBP 1 μM, calcium free medium) read?
**A.** The intracellular calcium response was “release of intracellular calcium”.

**Q.** And the “time of COX-2 production” value ([2]; BBP 1 μM)?
**A.** Its value is 15 min.

**Q.** And the “time of induction of AhR mRNA expression” value ([2]; BBP 1 μM, RT-PCR)?
**A.** Its value is 5 min.

**Q.** And the “time of peak AhR mRNA expression” value ([2]; BBP 1 μM, RT-PCR)?
**A.** Its value is 15 min.

**Q.** What about the “time of Gαq/11 and Gβ production” value ([2]; BBP 1 μM, Western blot) of the same compound?
**A.** Its value is 30 min.

**Q.** What about the “time of elevation in AhR production” value ([2]; BBP 1 μM, Western blot) of the same compound?
**A.** The value was 15 min.

**Q.** And the ARNT expression ([2]; BBP 1 μM, overnight)?
**A.** The ARNT expression was “significantly inhibited”.

**Q.** And the “time of ERK1/2 phosphorylation” value ([2]; BBP 1 μM, dephosphorylated at 30 min)?
**A.** Its value is 15 min.

**Q.** What about the “time to peak of GFP-tagged AhR recruitment at subcellular membrane” value [3] of the same compound?
**A.** The value was 115 s.

**Q.** What does the source list for `CC1=C(/C=C/C(C)=C/C=C/C(C)=C/C(=O)O)C(C)(C)CCC1` [RA, all-trans retinoic acid]?
**A.** differentiation of hTS cells into neural cell phenotypes ([4]; RA 10 μM, 1 to 7 days): induces hTS cells differentiation into a variety of phenotypical neural cells; giant cell formation ([4]; treatment with all-trans retinoic acid): resulted in a formation of giant cells; time of translocation of PKC-γ [5]: ≤ 5 min; increase in intracellular diacylglycerol (DG) ([5]; transient, at 2 min): 1.3 fold; intracellular Ca2+ response ([6]; RA, calcium-free medium, Fluo4): transiently intracellular Ca^2+ release; effect on expression of Nanog, Oct4, Sox2, Cdx2 ([7]; RA one day): promoted expressions of Nanog, Oct4 and Sox2 but not Cdx2; Nanog expression ([7]; RA-induced cells (10 μM, 1 day)): 26.9%; time of peak c-Src mRNA expression ([8]; RA 10 μM, RT-PCR): 15 min; time of transient elevation of RXRα mRNA and RARβ mRNA ([8]; RA 10 μM, RT-PCR): 15 min; time of production of c-Src protein ([8]; RA 10 μM, Western blot): 1 h; Wnt2B and FRAT1 expression ([8]; RA 4 hr and 24 hr incubation, Western blots): significantly upregulated; GSK3β activity state ([8]; RA 4 hr vs overnight, flow cytometry): initially activated in 4 hr but transited into inhibitory later; Fzd6 mRNA expression ([8]; RA, RT-PCR): overexpression; calcineurin production ([8]; RA, Western blot): induced production; time of CaMKII activation ([8]; RA, Western blot): 1 to 2 h; time of HDAC6 elevation ([8]; RA, Western blot): 2 h; time of Nanog production ([8]; RA, Western blot): 4 h; time of RARβ production ([8]; RA, Western blots): 4 h; time of c-Src expression ([8]; RA, Western blots): 5 min; time of production of Gαq/11 and Gβ ([8]; RA, Western blots): 30 min; time of transient Akt3 activation ([8]; RA, Western blots): 1 h; β-catenin activation ([8]; RA, between 30 min and 24 hr, Western blots): significantly activated; time of mTOR phosphorylation at serine 2448 ([8]; RA, disappeared after 24 hr): 4 h; time of peak eIF4B production ([8]; RA, fading away at 24 hr): 4 h

**Q.** For `COc1ccc(S(=O)(=O)N(CCO)c2ccccc2CN(C)C/C=C/c2ccc(Cl)cc2)cc1` [KN93], which eIF4B expression [9] is on record?
**A.** Its eIF4B expression is “inhibited”.

**Q.** What does the source list for `NCCOB(c1ccccc1)c1ccccc1` [2-APB, 2-aminoethoxydiphenyl borate]?
**A.** RA-induced ER calcium release ([6]; 2-APB, dose-dependent): inhibited; Calcineurin, NFAT1, and MEF2A expression [10]: inhibited; BBP-elicited intracellular calcium levels ([1]; 2-APB at various concentrations): dose-dependently inhibit; BBP-induced COX-2 production [2]: blocked
